Patent publication US20240189449A1, “LIPID NANOPARTICLES AND POLYNUCLEOTIDES ENCODING ORNITHINE TRANSCARBAMYLASE FOR THE TREATMENT OF ORNITHINE TRANSCARBAMYLASE DEFICIENCY” (ModernaTX, Inc., priority 2021, published 2024)

Columns and labels:
CD-1 mice [1] = test: hEPO expression in serum after IV lipid nanoparticles with hEPO mRNA, CD-1 mice; type: in vivo; conditions: LNP with DSPC, cholesterol, Compound I; for Mean 6 hr hEPO Concentration: serum 6 hours after injection
Method: To assess potency of expression and metabolic stability of lipids of the disclosure, hepatocyte protein expression (hEPO) was measured following administration to mice of a nanoparticle of the disclosure.
(§1) Lipid nanoparticles including DSPC as a phospholipid, cholesterol as a structural lipid, Compound I as a PEG lipid, an ionizable amino lipid of Formula (II), and an mRNA encoding hEPO were intravenously administered to CD-1 mice. The concentration of hEPO in serum was tested at 6 hours after injection.

CD-1 mice [2] = test: Parent lipid remaining in liver at 24 h, CD-1 mice (hEPO mRNA LNPs); type: in vivo; conditions: for Approx. Percent Total Dose of Parent Lipid Remaining at 24 h: calculation assumes a 25 g mouse with a 1.5 g liver
mice [3] = test: Luciferase expression, total whole body flux, mice; type: in vivo
Method: (§2) To further assess potency of expression and metabolic stability of lipids of the disclosure, expression of luciferase was measured following administration to rodents of a nanoparticle of the disclosure comprising an mRNA containing luciferase.
Lipid nanoparticles including DSPC as a phospholipid, cholesterol as a structural lipid, Compound I as a PEG lipid, an ionizable amino lipid of Formula (II), and an mRNA encoding luciferase were intravenously administered to CD-1 mice and Sprague Dawley rats. […]

mice [4] = test: Residual lipid levels in the liver at 24 h, mice (luciferase mRNA LNPs); type: in vivo
CD-1 mice [5] = test: NPI-Luciferase expression, ex vivo liver bioluminescence, CD-1 mice; type: in vivo; conditions: mouse, IV
Method: as §2
as §1, with “luciferase” for “hEPO”, “mice and Sprague Dawley rats.” for “mice.”, “level” for “concentration”, “expression” for “hEPO in serum”, “tested via bioluminescence in the liver ex vivo” for “tested”

Sprague Dawley rats [6] = test: NPI-Luciferase expression, ex vivo liver bioluminescence, Sprague Dawley rats; type: in vivo; conditions: rat, IV
Method: as §2
as §1, with “luciferase” for “hEPO”, “mice and Sprague Dawley rats.” for “mice.”, “level” for “concentration”, “expression” for “hEPO in serum”, “tested via bioluminescence in the liver ex vivo” for “tested”

Sprague Dawley rats [7] = test: Parent lipid remaining in liver tissue at 24 h, rats; type: in vivo; conditions: rat
Sprague Dawley rats [8] = test: Tolerability in rats: reporter antibody construct expression (ELISA) and liver toxicity; type: in vivo; conditions: IV
Method: To assess tolerability of the lipids of the disclosure, expression of a reporter antibody construct induced by sample formulations was assessed in rats.
Lipid nanoparticles including DSPC as a phospholipid, cholesterol as a structural lipid, Compound I as a PEG lipid, an ionizable amino lipid of Formula (II), and an mRNA encoding a reporter antibody construct were intravenously administered to Sprague Dawley rats. […] For the formulations tested, high levels of the reporter antibody were measured with minimal signs of liver toxicity (Table 15).

Sprague Dawley rats [9] = test: hEPO expression in serum after IV lipid nanoparticles with hEPO mRNA, Sprague Dawley rats; type: in vivo; conditions: serum 6 hours after injection
Method: To further assess potency of expression and metabolic stability of lipids of the disclosure, hepatocyte protein expression (hEPO) was measured following administration to rats of a nanoparticle of the disclosure.
as §1, with “Sprague Dawley rats.” for “CD-1 mice.”

cynomolgus monkeys = test: Luciferase level in livers ex vivo (ELISA), cynomolgus monkeys; conditions: IV
Method: To the assess potency of expression and metabolic stability of lipids of the disclosure in different species, the expression of an mRNA was measured following administration to non-human primates of a nanoparticle of the disclosure containing the mRNA.
as §1, with “luciferase” for “hEPO”, “cynomolgus monkeys.” for “CD-1 mice.”, “level” for “concentration”, “livers ex vivo” for “serum”, “measured via ELISA” for “tested”

Row | SMILES | hEPO AUC (CD-1 mice [1]) | Mean 6 hr hEPO Concentration (CD-1 mice [1]) | Parent Lipid Remaining (nmol/g liver tissue) at 24 h (CD-1 mice [2]) | Approx. Percent Total Dose of Parent Lipid Remaining at 24 h (CD-1 mice [2]) | Total Whole Body Flux @ 6 h (mice [3]) | % Lipid Remaining @ 24 h (mice [4]) | Mean 6 h ex vivo Liver NPI-Luciferase Total Flux (CD-1 mice [5]) | Mean 6 h ex vivo Liver NPI-Luciferase Total Flux (Sprague Dawley rats [6]) | Approx. Percent Total Dose of Parent Lipid Remaining at 24 h (Sprague Dawley rats [7]) | Mean Reporter Antibody Construct Concentration (Sprague Dawley rats [8]) | Mean 6 hr hEPO Concentration (Sprague Dawley rats [9]) | Mean 6 h NPI-Luciferase Concentration (cynomolgus monkeys)
1 | CCCCCCCCC(CCCCCCCC)OC(=O)CCCCCCCN(CCO)CCCCCCCC(=O)OCCC(CCCC)CCCCCC (centres unmarked) [Compound 7] | 2.13E+07 | 1355957 mIU/mL | 0.3 ± 0.2 nmol/g liver tissue | 0.2% | 6.09E+10 p/s | <1% |  |  |  |  |  | 
2 | CCCCCCCCC(CCCCCCCC)OC(=O)CCCCCCCN(CCO)CCCCCCCC(=O)OCC(CCC)CCCCCCC (centres unmarked) [Compound 8] |  |  |  |  | 3.82E+10 p/s | <1% |  |  |  |  |  | 
3 | CCCCCCCCC(CCCCCCCC)OC(=O)CCCCCCCN(CCCCCCCC(=O)OCC(CCC)CCCCCCC)CCCNc1c(NC)c(=O)c1=O (centres unmarked) [Compound 9] |  |  |  |  | 1.82E+10 p/s | 68 ± 10% |  |  |  |  |  | 
4 | CCCCCCCCC(CCCCCCCC)OC(=O)CCCCCCCN(CCCCCCCC(=O)OCC(CCCC)CCCCCCC)CCCNc1c(NC)c(=O)c1=O (centres unmarked) [Compound 10] |  |  |  |  | 4.6E+09 p/s | 67 ± 7% |  |  |  |  |  | 
5 | CCCCCCCCC(CCCCCCCC)OC(=O)CCCCCCCN(CCCCCCCC(=O)OCC(CC)CCCCCCC)CCCNc1c(NC)c(=O)c1=O (centres unmarked) [Compound 11] |  |  |  |  | 1.04E+10 p/s | 23 ± 6% |  |  |  |  |  | 
6 | CCCCCCCCC(CCCCCCCC)OC(=O)CCCCCCCN(CCO)CCCCCCCC(=O)OCCC(CCCCCC)C(C)C (centres unmarked) [Compound 12] |  |  |  |  | 2.39E+10 p/s | <1% |  |  |  |  |  | 
7 | CCCCCCCCC(CCCCCCCC)OC(=O)CCCCCCCN(CCO)CCCCCCCC(=O)OCCC(CCC)CCCCCC (centres unmarked) [Compound 13] |  |  |  |  | 3.77E+10 p/s | <1% |  |  |  |  |  | 
8 | CCCCCCCCC(CCCCCCCC)COC(=O)CCCCCN(CCCCCCCC(=O)OC(CC)CCCCCCCC)CCCNc1c(NC)c(=O)c1=O (centres unmarked) [Compound 14] | 4.53E+07 | 2952339 mIU/mL | 56 ± 6 nmol/g liver tissue | 58% |  |  | 465200000 photons/second | 1567000000 photons/second | 58% |  |  | 
9 | CCCCCCCCC(CCCCCCCC)OC(=O)CCCCCCCN(CCCCCCCC(=O)OCCC(CCC)CCCCCC)CCCNc1c(NC)c(=O)c1=O (centres unmarked) [Compound 18] | 3.17E+07 | 2158772 mIU/mL | 40 ± 7 nmol/g liver tissue | 41% |  |  | 372800000 photons/second | 1473333333 photons/second | 41% |  |  | 
10 | CCCCCCCCC(CCCCCCCC)OC(=O)CCCCCCCN(CCO)CCCCCCCC(=O)OCCC(CCCCC)CCCCC [Compound 24] | 1.93E+07 | 1160499 mIU/mL | 3 ± 1 nmol/g liver tissue | 2% |  |  | 240400000 photons/second | 2020000000 photons/second | 2% |  |  | 
11 | CCCCCC(CCCCC)CCOC(=O)CCCCCCCN(CCO)CCCCCCCC(=O)OCCC(CCCCC)CCCCC [Compound 25] | 1.07E+07 | 591942 mIU/mL | 0.1 ± 0.04 nmol/g liver tissue | <0.1% |  |  | 336800000 photons/second | 4068000000 photons/second | <0.1%^ | 948617 ng/mL |  | 
12 | CCCCCC(CCCCC)CCOC(=O)CCCCCCCN(CCCCCCCC(=O)OCCC(CCCCC)CCCCC)CCCNc1c(NC)c(=O)c1=O [Compound 30, Bis(3-pentyloctyl) 8,8′-((3-((2-(methylamino)-3,4-dioxocyclobut-1-en-1-yl)amino)propyl)azanediyl)dioctanoate] | 2.40E+07 | 1592050 mIU/mL | 25 ± 4 nmol/g liver tissue | 26% |  |  | 299800000 photons/second | 963633333.3 photons/second | 25% |  | 688780 mIU/mL | 782 ng/g
13 | CCCCCC(CCCCC)CCOC(=O)CCCCCCCN(CCCCCCCC(=O)OCCC(CCCC)CCCC)CCCNc1c(NC)c(=O)c1=O [Compound 54, 3-Butylheptyl 8-((3-((2-(methylamino)-3,4-dioxocyclobut-1-en-1-yl)amino)propyl)(8-oxo-8-((3-pentyloctyl)oxy)octyl)amino)octanoate] | 1.97E+07 | 647775 mIU/mL | 12 ± 1 nmol/g liver tissue | 12% |  |  |  |  |  |  | 476742 mIU/mL | 693 ng/g
14 | CCCCC(CCCC)CCOC(=O)CCCCCCCN(CCCCCCCC(=O)OCCC(CCCC)CCCC)CCCNc1c(NC)c(=O)c1=O [Compound 55] | 1.99E+07 | 1332073 mIU/mL | 3 ± 0.6 nmol/g liver tissue | 3% |  |  |  |  |  |  | 161760 mIU/mL | 
15 | CCCCCC(CCCCC)OC(=O)CCCCCCCN(CCCCCCCC(=O)OCCC(CCCC)CCCC)CCCNc1c(NC)c(=O)c1=O [Compound 61] | 1.44E+07 | 1020791 mIU/mL | 5.1 ± 0.8 nmol/g liver tissue | 6 ± 0.3% |  |  |  |  |  |  | 362569 mIU/mL | 
16 | CCCCCCCC(CCCCCCC)OC(=O)CCCCCCCN(CCCCCCCC(=O)OCCC(CCC)CCC)CCCNc1c(NC)c(=O)c1=O [Compound 63] | 9.66E+06 | 692334 mIU/mL | 8.9 ± 2.8 nmol/g liver tissue | 9 ± 3%^ |  |  |  |  |  |  |  | 
17 | CCCCCCC(CCCCCC)OC(=O)CCCCCCCN(CCCCCCCC(=O)OCCC(CCC)CCC)CCCNc1c(NC)c(=O)c1=O [Compound 64] | 2.43E+07 | 1760015 mIU/mL | 4.9 ± 0.9 nmol/g liver tissue | 6 ± 0.8% |  |  |  |  |  |  | 161146 mIU/mL | 
18 | CCCCCC(CCCCC)OC(=O)CCCCCCCN(CCCCCCCC(=O)OCCC(CCC)CCC)CCCNc1c(NC)c(=O)c1=O [Compound 65] | 1.02E+07 | 734054 mIU/mL | 0.9 ± 0.3 nmol/g liver tissue | 0.9 ± 0.06% |  |  |  |  |  |  |  | 
19 | CCCCC(CCCC)OC(=O)CCCCCCCN(CCCCCCCC(=O)OCCC(CCC)CCC)CCCNc1c(NC)c(=O)c1=O [Compound 66] | 2.10E+05 | 17801 mIU/mL | 0.1 ± 0.03 nmol/g liver tissue | <1% |  |  |  |  |  |  |  | 
